Data published in patent publication US20250003877A1, “Silyl Bridged Dyes” (priority 2021, published 2025).
Where two headings read alike, the source gives them in different places.

Tests used:
[1] = tested on: hairpin DNA oligonucleotide (hpDNA); assay: Photophysical properties after 2 h treatment with hairpin DNA (hpDNA); format: physicochemical; conditions: for Brightness (ε × ϕ) / ε (M^−1 cm^−1) / λem (nm) / λex (nm) / ϕ: +30 μM hpDNA, 2 h; for brightness: in the presence of 30 μM hpDNA
Experimental: Absorption and fluorescence spectra were measured on a Horiba Duetta fluorescence and absorbance spectrometer in quartz cuvettes (Starna Cells, catalog #3-Q-10). Extinction coefficients were calculated from plots of absorption versus concentration. Quantum yields were measured on a Hamamatsu Quantaurus QY C-11347-11 absolute quantum yield integrating sphere spectrometer at absorption values of <0.1 in side-arm quartz cuvettes (Hamamatsu cat #A10095-02). All measurements were performed in PBS (9.0 g/l NaCl, 0.795 g/l Na2HPO4, 0.144 g/l KH2PO4, pH 7.4, Corning cat #21-040-CV), ethanol, or 0.1% TFA/ethanol and prepared from stock solutions of dyes in DMSO, with final DMSO <1%. […] Selected KLZ values were determined in 1:1 v/v dioxane:water as previously described.
Spirolactonizable Si-rhodamines are particularly valuable for live cell imaging. They typically exist in a nonfluorescent, neutral cell-permeable form that can convert to a highly fluorescent form when bound to particular targets, such as DNA or the protein HaloTag®. This fluorogenic response occurs when the nonfluorescent spirolactone ring opens, generating a zwitterionic dye (Scheme 12). To date, all examples of fluorogenic Si-rhodamine dyes have been modified with targeting groups directly on the pendant phenyl ring that forms the spirolactone. It is not obvious whether this same fluorogenic behavior would also occur with dyes that are modified with targeting groups on the more distal silyl group. SiR-DNA (Spirochrome) is a commercially-available Si-rhodamine dye with the DNA-targeting ligand Hoechst 33258 attached to the pendant phenyl ring (Schemes 13A-C), allowing specific labeling of the nucleus in live cells. Therefore, two Hoechst 33258-modified Si-Bridge isomers were synthesized via direct reaction of the phenol of Hoechst 33258 with the isomeric Si-iodopropyl dyes compounds 047 and 048 (Scheme 6), and then assessed their ability to label the nucleus in live HeLa cells compared to SiR-DNA (FIGS. 2A-2C). […] To gain more insight into the molecular basis for this difference, the photophysical properties of compounds 061 and 062 were evaluated in vitro in the presence and absence of a hairpin DNA oligonucleotide (hpDNA) (Table 4). Like SiR-DNA, these dyes are quenched and virtually nonfluorescent in PBS, with quantum yields <0.02 and brightness of <130 M^−1 cm^−1.

[2] = tested on: nucleus in live HeLa cells; assay: No-wash live cell imaging of the nucleus with a Si-bridge dye; format: cell-based; conditions: confocal, Cy5 channel
Experimental: HeLa cells were cultured in Dulbecco's modified Eagle medium (DMEM, from GIBCO, catalog no. 11995065) supplemented with 10% fetal bovine serum (FBS) (GIBCO, catalog no. 10437028) and 1% penicillin-streptomycin (Sigma) at 37° C. in a 5% CO2 incubator. For imaging, cells were seeded in 35 mm glass bottom dishes (Cellvis, catalog no. D35-28-O—N). […] Dyes fluorescing in the Cy5 channel were excited with the HeNe (633 nm) laser at a 15% intensity and detected through a 640-615 band pass filter, and EGFP was excited with the Argon (488 nm) laser. Image analysis was performed using Leica LAS X SP8 software and ImageJ software.

[3] = target: T1, SNAP-tag (pSNAPf-H2B) in HeLa cells (Homo sapiens, UniProt P16455, A127T/A154D/C150Q/C62A/E30R/G131K/G132T/G153L/K125A/K32I/L33F/M134L/N157G/Q115S/Q116H/R128A/R135S/S151G/S152D/S159E); assay: Live cell imaging of SNAP-tag-expressing cells with Si-bridge dyes; format: cell-based; conditions: 3 μM dye, 30 min, 37° C., washed, HeLa transfected with pSNAPf-H2B
T1 construct: host or cells: HeLa cells, transient transfection with Lipofectamine 2000
T1 sequence (P16455 1-182 E30R/K32I/L33F/C62A/Q115S/Q116H/K125A/A127T/R128A/G131K/G132T/M134L/R135S/C150Q/S151G/S152D/G153L/A154D/N157G/S159E limits assumed): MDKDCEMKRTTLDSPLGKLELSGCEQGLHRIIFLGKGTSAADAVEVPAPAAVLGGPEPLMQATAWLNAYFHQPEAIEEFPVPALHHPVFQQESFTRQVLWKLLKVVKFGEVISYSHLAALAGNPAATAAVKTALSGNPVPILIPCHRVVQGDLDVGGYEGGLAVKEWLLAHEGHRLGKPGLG
Experimental: HeLa cells were seeded in 35 mm glass bottom dishes (Cellvis, catalog no. D35-28-O-N), and transfected with […] control plasmid (Addgene #101124). Transient transfections were performed using Lipofectamine 2000 (Invitrogen, catalog no. 1168019) following the manufacturer's instructions. HeLa cell labeling and confocal imaging were performed 24 hr after transfection. Labeling with SNAP-Cell® 647 SiR (New England Biolabs, catalog no. […]) and new dyes 065 and 066 containing benzylguanine SNAP-tag ligands were performed following the manufacturer's instructions. SNAP-tag is another popular system for labeling fusion proteins. SNAP-tag is more promiscuous towards its substrates than HaloTag, and thus it was anticipated that the relative fluorogenic behavior for each Si-bridge dye isomer would differ from the stark facial selectivity results seen above with Hoechst probes and HaloTag. Briefly, cells were incubated with 3 μM dye in cell culture medium for 30 min at 37° C. The cells were then washed three times with tissue culture medium and incubated in fresh medium for 30 minutes. The medium was replaced one more time to remove unreacted […] before imaging. […] Dyes fluorescing in the Cy5 channel were excited with the HeNe (633 nm) laser at a 15% intensity and detected through a 640-615 band pass filter and […] pinhole. […]

[4] = format: physicochemical
From the text: Strain-promoted lowering of the Si σ* energy in cyclic silanes is another approach to red-shift emission. Treatment of 1-1 with cyclohexyl dichlorosilane yielded the expected Si-rhodamine dye (Scheme 1A). However, the reactions with the corresponding five and four-membered ring analogs yielded many side products. The cyclopentyl analog 028 was obtained in good yield through an alternate synthetic pathway (Scheme 4), but the four-membered ring analog could not be isolated by either route. The silacyclopentyl analog is red-shifted compared to 001 and compound 014, consistent with a strain-induced LUMO-lowering effect (Table 3).
Scheme 10. Instability of silacyclopentyl dye 028 in solution. Proposed ring-opened product in methanol (the solvent used for HRMS analysis).

| SMILES | Brightness (ε × ϕ) [1] | ε (M^−1 cm^−1) [1] | λem (nm) [1] [nm] | λex (nm) [1] [nm] | ϕ [1] | brightness [1] | labeling of the nucleus in live HeLa cells [2] | Brightness (ε × ϕ) (0.1% SDS/PBS, 2 h incubation) | ε (M^−1 cm^−1) (0.1% SDS/PBS, 2 h incubation) | λem (nm) (0.1% SDS/PBS, 2 h incubation) | λex (nm) (0.1% SDS/PBS, 2 h incubation) | ϕ (0.1% SDS/PBS, 2 h incubation) | Brightness (ε × ϕ) (Hoechst probe in PBS) | ε (M^−1 cm^−1) (Hoechst probe in PBS) | λex (nm) (Hoechst probe in PBS) | labeling of SNAP-tag [3] | other results |
| --- | --- | --- | --- | --- | --- | --- | --- | --- | --- | --- | --- | --- | --- | --- | --- | --- | --- |
| CN1CCN(c2ccc3[nH]c(-c4ccc5[nH]c(-c6ccc(OCCC[Si@]7(C)c8cc(N(C)C)ccc8[C@]8(OC(=O)c9ccccc98)c8ccc(N(C)C)cc87)cc6)nc5c4)nc3c2)CC1 [Compound 061, (5s,10s)-3,7-Bis(dimethylamino)-5-methyl-5-(3-(4-(5-(4-methylpiperazin-1-yl)-1H,1′H-[2,5′-bibenzo[d]imidazol]-2′-yl)phenoxy)propyl)-3′H,5H-spiro[dibenzo[b,e]siline-10,1′-isobenzofuran]-3′-one] | 550 | 5,500 M^−1cm^−1 | 672 | 658 | 0.10 | 550 M⁻¹ cm⁻¹ | no labeling of the nucleus | 10,965 | 25,500 M^−1cm^−1 | 668 | 650 | 0.43 | 130 | 6,500 M^−1cm^−1 | 660 |  | ϕ (Hoechst probe in PBS): 0.02 |
| CN1CCN(c2ccc3[nH]c(-c4ccc5[nH]c(-c6ccc(OCCC[Si@]7(C)c8cc(N(C)C)ccc8[C@@]8(OC(=O)c9ccccc98)c8ccc(N(C)C)cc87)cc6)nc5c4)nc3c2)CC1 [Compound 062, (5r,10r)-3,7-Bis(dimethylamino)-5-methyl-5-(3-(4-(5-(4-methylpiperazin-1-yl)-1H,1′H-[2,5′-bibenzo[d]imidazol]-2′-yl)phenoxy)propyl)-3′H,5H-spiro[dibenzo[b,e]siline-10,1′-isobenzofuran]-3′-one] | 10,400 | 26,000 M^−1cm^−1 | 670 | 653 | 0.40 | 10 400 M^−1 cm^−1 | highly fluorogenic, labeling only the nucleus in live cells | 64,770 | 127,000 M^−1cm^−1 | 670 | 649 | 0.51 | 90 | 10,000 M^−1cm^−1 | 663 |  | extinction coefficient ([1]; in the presence of 30 mM hpDNA): 26 000 M^−1 cm^−1; quantum yield ([1]; in the presence of 30 mM hpDNA): 0.40 |
| CN(C)c1ccc2c(c1)[Si@](C)(CCCSCC(=O)NCc1ccc(COc3nc(N)nc4[nH]cnc34)cc1)c1cc(N(C)C)ccc1[C@]21OC(=O)c2ccccc21 [Compound 065, N-(4-(((2-Amino-9H-purin-6-yl)oxy)methyl)benzyl)-2-((3-((5s,10s)-3,7-bis(dimethylamino)-5-methyl-3′-oxo-3′H,5H-spiro[dibenzo[b,e]siline-10,1′-isobenzofuran]-5-yl)propyl)thio)acetamide] |  |  |  |  |  |  |  |  |  |  |  |  |  |  |  | labeled SNAP-tag |  |
| CN(C)c1ccc2c(c1)[Si@](C)(CCCSCC(=O)NCc1ccc(COc3nc(N)nc4[nH]cnc34)cc1)c1cc(N(C)C)ccc1[C@@]21OC(=O)c2ccccc21 [Compound 066, N-(4-(((2-Amino-9H-purin-6-yl)oxy)methyl)benzyl)-2-((3-((5r,10r)-3,7-bis(dimethylamino)-5-methyl-3′-oxo-3′H,5H-spiro[dibenzo[b,e]siline-10,1′-isobenzofuran]-5-yl)propyl)thio)acetamide] |  |  |  |  |  |  |  |  |  |  |  |  |  |  |  | labeled SNAP-tag |  |
| Cc1ccccc1C1=C2C=CC(=[N+](C)C)C=C2[Si]2(CCCC2)c2cc(N(C)C)ccc21 [Compound 028, N-(7-(Dimethylamino)-10-(o-tolyl)-3H-spiro[dibenzo[b,e]siline-5,1′-silolan]-3-ylidene)-N-methylmethanaminium] |  |  |  |  |  |  |  |  |  |  |  |  |  |  |  |  | chemical stability in solution [4]: chemically unstable in solution; Brightness (ϕ × ε) (PBS): 54,826; Em (nm) (PBS): 671 nm; Ex (nm) (PBS): 653 nm; ε (M^−1 cm^−1) (PBS): 158,000 M^−1 cm^−1; ϕ (quantum yield) (PBS, pH 7.4): 0.35 |
